Measurements from US20060074109A1, “Use of inhibitors of 24-hydroxylase in the treatment of cancer” (Sapphire Therapeutics, Inc., priority 2004, published 2006).

What was measured:
[1] = tested on: 24OHase mRNA in OVCAR-3 cells; test: Quantitative RT-PCR of 24OHase mRNA; type: cell-based, human; details: 100 nM
Procedure: Ethanol was used as a vehicle, and it was also added to the control cells. For RNA extraction, the cells were collected 4, 6 and 24 hr after the treatment with vitamin D compound or vehicle. RNA extractions were done with TRIZOL reagent (GIBCO Invitrogen Corporation, Paisley, UK). The integrity of RNA samples was confirmed on gel electrophoresis. […] The reactions for 24-hydroxylase were performed in the LightCycler instrument (Roche Diagnostics, Basel, Switzerland) from 300 ng total RNA. PBGD (human porphobilinogendeaminase) mRNA was used as an […] control. […] Nucleotides, Tth DNA polymerase (DNA polymerase and reverse transcriptase activity), SYBR Green I and reaction buffer were included in the LightCycler-RNA Master SYBR Green I kit (Roche Diagnostics). […] Cell. […] Detection of fluorescent product was performed at the end of the extension step of each cycle. To verify the specific products, melting curve analysis and gel electrophoresis were done. The data were quantified by the Fit Points method with LightCycler Data Analysis software. […] Hormone treatments and RT-PCR were done twice.

24OHase in OVCAR-3 cells = biological target: T1, 24OHase in OVCAR-3 cells (Homo sapiens, UniProt Q07973); test: Metabolic analysis of 25(OH)D3: 24,25(OH)2D3 production; type: cell-based; details: for amount of 24,25(OH)2D3 relative to 0 hr: first experiment
T1 construct: Also, 24OHase is expressed in OVCAR-3 cells; endogenous in cells; host or cells: OVCAR-3
T1 sequence (Q07973 36-514): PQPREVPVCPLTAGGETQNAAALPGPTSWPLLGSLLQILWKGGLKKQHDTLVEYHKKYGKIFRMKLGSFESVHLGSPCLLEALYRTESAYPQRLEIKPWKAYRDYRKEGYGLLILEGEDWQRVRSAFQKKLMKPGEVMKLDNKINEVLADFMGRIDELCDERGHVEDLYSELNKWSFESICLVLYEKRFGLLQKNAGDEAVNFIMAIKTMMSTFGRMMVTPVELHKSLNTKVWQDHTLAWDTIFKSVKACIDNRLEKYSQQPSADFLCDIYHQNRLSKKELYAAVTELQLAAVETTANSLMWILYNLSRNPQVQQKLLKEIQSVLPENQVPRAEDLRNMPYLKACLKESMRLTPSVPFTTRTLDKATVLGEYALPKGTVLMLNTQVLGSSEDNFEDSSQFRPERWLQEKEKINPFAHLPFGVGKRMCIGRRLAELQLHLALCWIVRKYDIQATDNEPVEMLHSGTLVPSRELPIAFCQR
Procedure: OVCAR-3 cells (1.5×10^6 cell/flask) were plated on T25 culture flasks. One day after plating, cells were treated with 500 nM 25(OH)D3 in RPMI 1640 medium supplemented with 10% FBS, 10 μg/ml insulin, 0.25% glucose and antibiotics (100 IU/ml penicillin, 100 μg/ml streptomycin). After 0, 3 or 24 hr, the medium was collected and the cell monolayer was extracted with 1 ml methanol. After 15 min incubation at room temperature, the methanol was transformed into the same tube than the sample medium. The samples for the measurement of the 25(OH)D3 metabolites were purified using the acetonitrile-C 18 Sep-Pak (Waters Corporation, Milford, Mass.) procedure (Turnbull, H., Trafford, D. J., Makin, H. L., “A Rapid and Simple Method for the Measurement of Plasma 25-hydroxyvitamin D2 and 25-hydroxyvitamin D3 Using Sep-Pak C 18 Cartridges and a Single High-Performance Liquid Chromatographic Step,” Clin. Chim. Acta., 120:65-76 (1982)) followed by separation of the metabolites by a high-performance liquid chromatography. […] The second measurement was done following the same procedure except dextran charcoal-treated FBS was used instead of FBS, 24OHase inhibitor (200 nM VID400) was used with the 500 nM 25(OH)D3 treatment, and the samples were collected only after 0 and 24 hr.

[2] = tested on: OVCAR-3 ovarian cancer cells; test: Cell growth, methylene blue uptake (Experiment VI); type: cell-based, human; details: 200 nM VID400 with calcitriol
Procedure: Culture conditions were the same as for Experiment I. Cell growth was measured using uptake of methylene blue (0.5% in 50% ethanol), followed by air drying and release of the dye in 1% sodium N-lauroyl sarcosine in PBS.

SMILES | induction of 24OHase mRNA expression ([1]; 6 hr treatment) [fold] | induction of 24OHase mRNA expression ([1]; 24 hr treatment) [fold] | 24,25(OH)2D3 (24OHase in OVCAR-3 cells; 500 nM 25(OH)D3, 0 hr, experiment I (FBS)) [nM] | 24,25(OH)2D3 (24OHase in OVCAR-3 cells; 500 nM 25(OH)D3, 0 hr, experiment II (dextran charcoal-treated FBS)) [nM] | 24,25(OH)2D3 (24OHase in OVCAR-3 cells; 500 nM 25(OH)D3, 3 hr, experiment I (FBS)) [nM] | amount of 24,25(OH)2D3 relative to 0 hr (24OHase in OVCAR-3 cells; 500 nM 25(OH)D3, 3 hr) [times] | 24,25(OH)2D3 (24OHase in OVCAR-3 cells; 500 nM 25(OH)D3, 24 hr, experiment I (FBS)) [nM] | 24,25(OH)2D3 (24OHase in OVCAR-3 cells; 500 nM 25(OH)D3, 24 hr, experiment II (dextran charcoal-treated FBS)) [nM] | amount of 24,25(OH)2D3 relative to 0 hr (24OHase in OVCAR-3 cells; 500 nM 25(OH)D3, 24 hr) [fold] | concentration of 24,25(OH)2D3 relative to 0 hr (24OHase in OVCAR-3 cells; 500 nM 25(OH)D3, 24 hr, second experiment) [times] | production of 24,25(OH)2D3 compared to 500 nM 25(OH)D3 treatment alone (24OHase in OVCAR-3 cells; 200 nM VID400 + 500 nM 25(OH)D3, 24 hr, second experiment) | 24,25(OH)2D3 (24OHase in OVCAR-3 cells; 500 nM 25(OH)D3 + 200 nM VID400, 24 hr, experiment II (dextran charcoal-treated FBS)) [nM] | effect on cell growth [2]
C=C1CC[C@H](O)C/C1=C/C=C1\CCC[C@]2(C)[C@@H]([C@H](C)CCCC(C)(C)O)CC[C@@H]12 [25(OH)D3, monohydroxyvitamin D3] | 3 | 0.5 | 6 | 1 | 24 | 4 | 112 | 27 | 18 | 27 |  |  | 
O=C(NC[C@@H](c1ccccc1)n1ccnc1)c1ccc(-c2ccc(Cl)cc2)cc1 [VID400, 2-(R)-4′-Chlorobiphenyl-4-carboxylic acid (2-imidazol-1-yl-2-phenyl-ethyl)-amide] |  |  |  |  |  |  |  |  |  |  | reduced to one-third | 8 | produced a further inhibition which was synergistic with calcitriol
